Measurements as given in ChEMBL document CHEMBL3044538, “QSAR Analysis of BABQ compounds via calculated molecular descriptors” (Med Chem Res, 2006).

What was measured:
Rattus norvegicus = organism: Rattus norvegicus; test: Toxicity in Rattus norvegicus (rat); format: organism-based; conditions: in vivo
B16 = test: Antitumor activity against Mus musculus (mouse) B16 cells xenografted in rat; format: functional
L1210 [1] = test: Antitumor activity against Mus musculus (mouse) L1210 cells xenografted in rat; format: functional
L1210 [2] = test: Cytotoxicity against Mus musculus (mouse) L1210 cells; format: functional

| Structure (SMILES) | log(1/LD50) (Rattus norvegicus) | log(1/MIC) (B16) | log(1/MIC) (L1210 [1]) | log(1/MIC) (L1210 [2]) |
| --- | --- | --- | --- | --- |
| COC1=C(N2CC2C)C(=O)C=C(N2CC2C)C1=O (centres undefined) | 1.4 | 2.27 | 1.47 | -0.5 |
| O=C1C(Cl)=C(N2CC2)C(=O)C(Cl)=C1N1CC1 |  |  |  | -0.3 |
| CC1=C(N2CC2C)C(=O)C(Br)=C(N2CC2C)C1=O (centres undefined) | 1.59 |  |  |  |
| COC1=C(C)C(=O)C(N2CCCC2)=CC1=O |  |  |  | -1.6 |
| CC1=C(N2C(C)C2C)C(=O)C(Br)=C(N2C(C)C2C)C1=O (centres undefined) | 0.63 |  | 0.69 | -0.1 |
| CCC1=C(N2CC2)C(=O)C(C)=C(N2CC2)C1=O | 1.46 |  |  | -0.3 |
| O=C1C=C(N2CC2)C(=O)C(N2CC2)=C1N1CC1 [TRIAZIQUONE] | 2.66 | 3.8 |  |  |
| CCOC(=O)NC1=CC(=O)C(NC(=O)OCC)=CC1=O |  |  |  | 0.09 |
| CC1=C(C)C(=O)C(N2CCCC2)=CC1=O |  |  |  | -1.7 |
| COC1=C(N2CC2)C(=O)C(OC)=C(N2CC2)C1=O |  |  |  | 0.15 |
| CC1CN1C1=CC(=O)C(N2CC2C)=C(F)C1=O (centres undefined) | 1.5 |  |  | 1.49 |
| O=C1C=C(N2CC=CC2)C(=O)C=C1N1CC=CC1 |  |  |  | -1.6 |
| CC1=C(N2CC2)C(=O)C(CCO)=C(N2CC2)C1=O | 1.39 | 3.6 |  |  |
| CC1CN1C1=C(Cl)C(=O)C(N2CC2C)=C(Cl)C1=O (centres undefined) |  |  | 1.16 | -0.6 |
| CCC1=C(N2CC2)C(=O)C(Br)=C(N2CC2)C1=O | 1.39 | 2.6 |  |  |
| O=C1C=C(N2CC2)C(=O)C=C1N1CC1 | 1.8 |  |  |  |
| O=C1C(N2CC2)=C(N2CC2)C(=O)C(N2CC2)=C1N1CC1 |  |  |  | 0.9 |
| CC1=C(N2CC2C)C(=O)C(CCOC(N)=O)=C(N2CC2C)C1=O (centres undefined) |  |  |  | -0.1 |
| O=C1C(Br)=C(N2CC2)C(=O)C(Br)=C1N1CC1 |  |  |  | 0.35 |

| Structure (SMILES) | log(1/LD50) (Rattus norvegicus) | log(1/MIC) (B16) | log(1/MIC) (L1210 [1]) | log(1/MIC) (L1210 [2]) |
| --- | --- | --- | --- | --- |
| CCOC(=O)NC1=C(N2CC2C)C(=O)C(NC(=O)OCC)=C(N2CC2C)C1=O (centres undefined) | 0.69 |  |  | -1 |
| CC1=C(C)C(=O)C(N2CC=CC2)=CC1=O |  |  |  | -0.7 |
| CNC1=C(N2CC2C)C(=O)C(NC)=C(N2CC2C)C1=O (centres undefined) |  | 2.33 | 2.19 | -0.3 |
| CNC1=C(N2CC2)C(=O)C(NC)=C(N2CC2)C1=O |  | 3.14 | 2.49 | 0.32 |
| CC1=C(N2CC2)C(=O)C(Br)=C(N2CC2)C1=O | 1.44 |  |  |  |
| CC1CN1C1=CC(=O)C(N2CC2C)=CC1=O (centres undefined) | 1.16 |  |  |  |
| NC(=O)OCCC1=C(N2CC2)C(=O)C(Br)=C(N2CC2)C1=O | 1.05 |  | 2 |  |
| CCOC(=O)NC1=C(N2CC2)C(=O)C(NC(=O)OCC)=C(N2CC2)C1=O [DIAZIQUONE] | 1.54 |  |  | -0.5 |
| O=C1C(F)=C(N2CC2)C(=O)C(F)=C1N1CC1 |  |  |  | -0.2 |
| CC1CN1C1=C(N2CCCC2)C(=O)C(N2CC2C)=C(N2CCCC2)C1=O (centres undefined) |  |  |  | -1.1 |
| O=C1C(NCCO)=C(N2CC2)C(=O)C(NCCO)=C1N1CC1 |  | 3.94 | 3.39 | 0.42 |
| COC(COC(N)=O)C1=C(N2CC2)C(=O)C(C)=C(N2CC2)C1=O (centres undefined) [CARBOQUONE] | 1.73 |  |  |  |
| O=C1C(N2CCCC2)=C(N2CC2)C(=O)C(N2CCCC2)=C1N1CC1 |  | 2.4 |  | -0.3 |
| O=C1C=C(N2CCCC2)C(=O)C=C1N1CCCC1 |  |  |  | -1.6 |
| CC1CN1C1=C(Br)C(=O)C(N2CC2C)=C(Br)C1=O (centres undefined) |  |  |  | 0.77 |
| CN(CCO)C1=C(N2CC2)C(=O)C(N(C)CCO)=C(N2CC2)C1=O |  |  |  | 0.09 |
| O=C1C(F)=C(N2CC2)C(=O)C(N2CC2)=C1N1CC1 | 1.62 |  |  |  |
| CC1CN1C1=C(F)C(=O)C(N2CC2C)=C(N2CC2C)C1=O (centres undefined) | 1.45 |  |  |  |
| CC1=C(N2CC2)C(=O)C(CCOC(N)=O)=C(N2CC2)C1=O | 1.99 |  |  |  |
